Laboratory results: ChEMBL document CHEMBL5236571, “Dynamic Covalent Template-Guided Screen for Nucleic Acid-Targeting Agents” (J Med Chem, 2022)
Activity calls are given as the source filed them. No cut-off for these calls is given here.

Experiments:
r(CUG) repeat expansion [1] = assay: Inhibition of d(CTG.CAG)90 transcription (unknown origin) assessed as inhibition of r(CUG)90 formation incubated for 3.5 hrs measured after 1.5 hrs in presence of T7 RNA polymerase by SDS-PAGE analysis; type: nucleic-acid assay, Homo sapiens
r(CUG) repeat expansion [2] = assay: Inhibition of d(CTG.CAG)90 transcription (unknown origin) assessed as inhibition of r(CUG)90 formation at 60 uM incubated for 3.5 hrs measured after 1.5 hrs in presence of T7 RNA polymerase by SDS-PAGE analysis; type: nucleic-acid assay; settings: Homo sapiens, time 5.0 hrs
r(CUG) repeat expansion [3] = assay: Inhibition of d(CTG.CAG)90 transcription (unknown origin) assessed as inhibition of r(CUG)90 formation at 10 uM incubated for 3.5 hrs measured after 1.5 hrs in presence of T7 RNA polymerase by SDS-PAGE analysis relative to control; type: nucleic-acid assay; settings: Homo sapiens, time 5.0 hrs

Row | IC50 (r(CUG) repeat expansion [1]) [µM] | inhibition (r(CUG) repeat expansion [2]) | inhibition (r(CUG) repeat expansion [3]) [%] | Compound
1 | 25.9 | Active | 34.8 | N=C(NCCCCNc1nc(N)nc(NCc2ccc(/C=N/c3ccc(CNc4nc(N)nc(NCc5ccc(N)cc5)n4)cc3)cc2)n1)c1ccc(C(=N)NCCCCNc2nc(N)nc(NCc3ccc(CO)cc3)n2)cc1
2 | 34.2 | – | 13.9 | N=C(NCCCCNc1nc(N)nc(NCc2ccc(/C=N/CCCCn3cnc4c(N)ncnc43)cc2)n1)c1ccc(C(=N)NCCCCNc2nc(N)nc(NCc3ccc(/C=N/c4ccc(CNC(=N)c5ccc(C(=N)NCc6ccc(N)cc6)cc5)cc4)cc3)n2)cc1
3 | 44 | – | 19.9 | COc1ccc2nc3cc(Cl)ccc3c(NC/C=N/CCCCNc3nc(N)nc(NCCCC/N=C/c4ccc(CNc5nc(N)nc(N)n5)cc4)n3)c2c1
4 | 36.2 | – | 23.2 | COc1ccc2nc3cc(Cl)ccc3c(NC/C=N/CCCCNC(=O)c3cccc4c(NCCCCNc5nc(N)nc(N)n5)c5ccccc5nc34)c2c1
5 | > 60 | – | 21.3 | N=C(NCc1ccc(N)cc1)c1ccc(C(=N)NCc2ccc(/N=C/c3ccc(/C=N/CCCCNc4nc(N)nc(NCCCCN)n4)cc3)cc2)cc1
